Measured values taken from US7189851B2, “Condensed heterocyclic compounds as calcitonin agonists” (SmithKline Beecham Corporation, priority 2002, dated 2007).

Assays:
[1] = target: T1, human calcitonin-2 receptor (hCT2R) (Homo sapiens, UniProt P30988); assay: HCT2R CRE-luc reporter assay; format: cell-based; conditions: agonist activity; CHO-6CRE-luciferase cells co-transfected with hCT2R
T1 construct: expressed in transfected cells; host or cells: Chinese hamster ovary (CHO) cells co-transfected with a 6CRE-luciferase reporter; receptor cDNA cloned from the MCF7 cell line
T1 sequence (P30988 25-474): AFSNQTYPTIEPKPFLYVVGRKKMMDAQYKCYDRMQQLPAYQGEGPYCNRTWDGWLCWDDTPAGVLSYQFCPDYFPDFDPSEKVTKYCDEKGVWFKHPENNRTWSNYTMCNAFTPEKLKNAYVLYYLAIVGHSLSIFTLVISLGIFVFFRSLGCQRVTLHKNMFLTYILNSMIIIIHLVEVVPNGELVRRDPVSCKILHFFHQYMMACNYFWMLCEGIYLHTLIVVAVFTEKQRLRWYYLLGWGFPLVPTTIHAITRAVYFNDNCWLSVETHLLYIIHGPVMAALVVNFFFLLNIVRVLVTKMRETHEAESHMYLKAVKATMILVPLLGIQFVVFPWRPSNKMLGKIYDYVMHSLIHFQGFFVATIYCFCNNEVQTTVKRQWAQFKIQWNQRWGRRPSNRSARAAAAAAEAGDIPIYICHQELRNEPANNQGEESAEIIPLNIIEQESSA
Protocol: The compounds of the present invention elicit important and measurable pharmacological responses. As is to be expected, the efficacy of any compound will vary depending upon the particular assay and the particular compound tested.
All recombinant cell line human calcitonin receptor assays were carried out with the human receptor corresponding to GeneBank Accession Number X69920, [See: Molecular Pharmacology 46 (2):246–255, 1994, Cloning and characterization of an abundant subtype of the human calcitonin receptor] cloned from the MCF7 cell line (American Type Tissue Collection, Manassas, Va., USA, Catalog # HTB-22). Human calcitonin receptor (hCT2R) was cloned as a HindIII fragment into plasmid BS SKII. Chinese hamster ovary cells were co-transfected with a 6CRE-luciferase reporter system and hCTR2. HEK cells were transfected with hCTR2.
CHO-6CRE-luciferase cells with or without co-expressed hCTR2 were grown in suspension in commercially available cell culture medium supplemented with 2 mM L-glutamine and 5% fetal bovine serum (FBS). Sixteen hours before each assay, cells were collected and resuspended at 1,000,000 cells/ml in media without FBS. Cells were cultured in spinner flasks at 37° C. in an atmosphere of 5% CO2. At the time of the assay, cells were pelleted by centrifugation and resuspended in media without FBS at a concentration of 250,000 cells/ml. The cell suspension was pipetted into black 96-well microtiter plates (25,000 cells/well) containing test compounds. After a four-hour incubation at 37° C., media was aspirated, followed by addition of 50 microliters of LucLite and PBS (1:1) containing 1 mM CaCl2 and 1 mM MgCl2. The plates were sealed and incubated for 20 minutes in the dark. Luminescent responses were measured using a Packard TopCount.
Structure activity studies were performed on CHO-6CRE-luciferase cells with or without co-transfected hCT2R. Forty-eight hours before each assay, cells were removed with trypsin and plated in 96-well microtiter plates at a concentration of 25–100,000 cells/well. Sixteen hours before each assay, FBS-containing media was removed and replaced with media without FBS. Compounds were added and incubated for four hours at 37° C. After incubation, media was aspirated and 50 microliters of LucLite in PBS (1:1) containing 1 mM CaCl2 and 1 mM MgCl2 were added to each well. Plates were sealed and incubated for 20 minutes in the dark before quantification of luminescence on a Packard TopCount.
Concentration-response curves were calculated and potencies were reported as the concentration of compounds producing half-maximal responses (EC50) or the negative log of the concentration of compounds producing half-maximal responses (pEC50).

[2] = tested on: Thyroid-parathyroidectomized (TPTX) rats; assay: Rat TPTX assay in vivo (PTH-induced elevation of serum calcium); conditions: 16 units/kg SC, TPTX rats
Text: Thyroid-parathyroidectomized (TPTX) rats were used to determine the effects of compounds on PTH-induced elevation of serum calcium in vivo. The thyroid and parathyroid glands of male CD rats were removed under anesthesia and subcutaneous pumps containing human parathyroid hormone (hPTH 1–34) were implanted two to five days after TPTX. […] PTH was delivered at a rate of 30 micrograms/kg/hour. PTH causes significant elevations of serum calcium in TPTX rats given no other treatments. Rats were treated with vehicle, test compounds at various doses or calcitonin 16 units/kg SC. […] Serurn calcium was measured at baseline and every two hours up to six hours. Averaged group responses at each time point were compared using Analysis of Variance (ANOVA).

`CCOC(=O)c1c(CCc2ccc(F)cc2)cc2c(c1-c1ccc(C(=O)NCc3ccco3)cc1)C(=O)N1CCC[C@@H]21` [Example 50, Ethyl (9bS)-8-[2-(4-flurophenyl)ethyl]-6-(4-{[(2-furylmethyl)amino]carbonyl}phenyl)-5oxo-2,3,5,9b-tetrahydro-1H-pyrrolo[2,1-α]isoindole-7-carboxylate] was tested, and the EC50 [1] was ≥ 1000 nM.
`CCOC(=O)c1c(Cc2ccsc2)nc2c(c1-c1ccc(C(=O)NCc3ccco3)cc1)C(=O)N1CCCC21` [Example 51, Ethyl (9aS)-4-(4-{[(2-furylmethyl)amino]carbonyl}phenyl)-5-oxo-2-(3-thienylmethyl)-7,8,9,9a-tetrahydro-5H-pyrido[2,3-α]pyrrolizine-3-carboxylate] showed an EC50 [1] of 100 to 1000 nM.
`CCOC(=O)c1c(CCc2ccc(F)cc2)nc2c(c1-c1ccc(C(=O)N[C@@H](C)c3ccncc3)c(F)c1)C(=O)N1CCC[C@@H]21` [Example 52, Ethyl (9aS)-2-[2-(4-fluorophenyl)ethyl]-4-[3-fluoro-4-({[(1S)-1-(4-pyridinyl)ethyl]amino}carbonyl)phenyl]-5-oxo-7,8,9,9a-tetrahydro-5H-pyrido[2,3-α]pyrrolizine-3-carboxylate] gave an EC50 [1] of 10 to 100 nM.
`CCOC(=O)c1c(CCc2ccc(F)cc2)nc2c(c1-c1ccc(C(=O)N[C@@H]3CCc4ccccc43)cc1[N+](=O)[O-])C(=O)N1CCC[C@@H]21` [Example 53, Ethyl (9aS)-4-(4-{[(1R)-2,3-dihydro-1H-inden-1-ylamino]carbonyl}-2-nitrophenyl)-2-[2-(4-fluorophenyl)ethyl]-5-oxo-7,8,9,9a-tetrahydro-5H-pyrido[2,3-α]pyrrolizine-3-carboxylate] gave an EC50 [1] of 10 to 100 nM.
In the case of `CCOC(=O)c1c(Cc2ccc(F)cc2)nc2c(c1-c1cc(C(=O)NCCc3cccs3)cc(C(F)(F)F)c1)C(=O)N1CCC[C@@H]21` [Example 54, Ethyl (9aS)-2-(4-fluorobenzyl)-5-oxo-4-[3-({[2-(2-thienyl)ethyl]amino}carbonyl)-5-(trifluoromethyl)phenyl]-7,8,9,9a-tetrahydro-5H-pyrido[2,3-α]pyrrolizine-3-carboxylate], the EC50 [1] is reported as ≥ 1000 nM.
Work on `CCOC(=O)c1c(Cc2ccc(F)cc2)nc2c(c1-c1ccc(C(=O)NN3CCc4ccccc43)cc1)C(=O)N1CCC[C@@H]21` [Example 55, Ethyl (9aS)-4-{4-[(2,3-dihydro-1H-indol-1-ylamino)carbonyl]phenyl}-2-(4-fluorobenzyl)-5-oxo-7,8,9,9a-tetrahydro-5H-pyrido[2,3-α]pyrrolizine-3-carboxylate] yielded an EC50 [1] of 10 to 100 nM.
With `CCOC(=O)c1c(CCc2ccc(F)cc2)nc2c(c1-c1cc(Br)cs1)C(=O)N1CCC[C@@H]21` [Example 56, Ethyl (9aS)-4-(4-bromo-2-thienyl)-2-[2-(4-fluorophenyl)ethyl]-5-oxo-7,8,9,9a-tetrahydro-5H-pyrido[2,3-α]pyrrolizine-3-carboxylate] the EC50 [1] was 100 to 1000 nM.
`O=C(N[C@@H]1CCc2ccccc21)c1ccc2c(c1)[nH]c(=O)c1c(Cc3ccc(F)cc3)nc3c(c12)C(=O)N1CCC[C@@H]31` [Example 58, (8bS)-N-[(1R)-2,3-dihydro-1H-inden-1-yl]-7-(4-fluorobenzyl)-6,13-dioxo-5,8b,9,10,11,13-hexahydro-6H-benzo[c]pyrroizino[2,1-f][2,7]naphthyridine-3-carboxamide] was tested, and the EC50 [1] was 100 to 1000 nM.
`O=C(N[C@@H]1CCc2ccccc21)c1ccc2c(c1)[nH]c(=O)c1c(CCc3ccc(F)cc3)nc3c(c12)C(=O)N1CCC[C@@H]31` [Example 59, (8bS)-N-[(1R)-2,3-dihydro-1H-inden-1-yl]-7-[2-(4-fluorophenyl)ethyl]-6,13-dioxo-5,8b,9,10,11,13-hexahydro-6H-benzo[c]pyrrolizino[2,1-f][2,7]naphthyridine-3-carboxamide] was tested, and the EC50 [1] was ≤ 10 nM.
Work on `CCOC(=O)C1=C(Cc2ccc(F)cc2)Nc2c(c(=O)n3n2CCC3)C1c1ccc(C(=O)N[C@@H]2CCc3ccccc32)cc1` (stereo partly drawn) [Example 60, Ethyl 4-(4-{[(1R)-2,3-dihydro-1H-inden-1-ylamino]carbonyl}phenyl)-2-(4-fluorobenzyl)-5-oxo-1,5,8,9-tetrahydro-4H,7H-pyrazolo[1′,2′:1,2]pyrazolo[3,4-b]pyridine-3-carboxylate] yielded an EC50 [1] of 100 to 1000 nM.
Molecule `CCOC(=O)C1=C(CCc2ccc(C(F)(F)F)cc2)Nc2c(c(=O)n3n2CCC3)C1c1ccc(C(=O)N[C@@H]2CCc3ccccc32)cc1` (stereo partly drawn) [Example 61, Ethyl 4-(4-{[(1R)-2,3-dihydro-1H-inden-1-ylamino]carbonyl}phenyl)-5-oxo-2-{2-[4-(trifluoromethyl)phenyl]ethyl}-1,5,8,9-tetrahydro-4H,7H-pyrazolo[1′,2′:1,2]pyrazolo[3,4-b]pyridine-3-carboxylate] has an EC50 [1] of 10 to 100 nM.
Work on “Ethyl (9aS)-4-(4-{[(2-furylmethyl)amino]carbonyl}phenyl)-5-oxo-2-[2-(3-pyridinyl)ethyl]-7,8,9,9a-tetrahydro-5H-pyrido[2,3-α]pyrrolizine-3-carboxylate [Example 33]” yielded an EC50 [1] of 10 to 100 nM.
“Ethyl (9aS)-4-(4-{[(2-furylmethyl)amino]carbonyl}phenyl)-5-oxo-2-{2-[4-(trifluoromethyl)phenyl]ethyl}-7,8,9,9a-tetrahydro-5H-pyrido[2,3-α]pyrrolizine-3-carboxylate-N-oxide [Example 38]” gave an EC50 [1] of 100 to 1000 nM.
For “Ethyl (9αS)-4-{4-[(benzylamino)carbonyl]phenyl}-5-oxo-2-{2-[4-(trifluoro-methyl)phenyl]ethyl}-9,9a-dihydro-5H-[1,3]oxazolo[3′,4′:1,2]pyrrolo[3,4-b]pyridine-3-carboxylate [Example 36]”, the EC50 [1] was 10 to 100 nM.
In the case of “Ethyl(9aS)-4-[3-({[2-(2-furyl)ethyl]amino}carbonyl)phenyl]-5-oxo-2-{2-[4-(trifluoromethyl)phenyl]ethyl}-7,8,9,9a-tetrahydro-5H-pyrido[2,3-a]pyrrolizine-3-carboxylate [Example 13]”, the EC50 [1] is reported as ≥ 1000 nM.
For calcitonin [reference compound], the “suppression of PTH-induced hypercalcemia” value [2] was “maximal suppression”.
